# In the SangsterLogP compilation:
# Key:
# [1] = method code SF, from PMID: 26783178
# [2] = not given; remark: listed apart in the source
# [3] = method code SF-HPLC, from DOI: 10.1016/j.ejmech.2003.12.002, PMID: 15051170
# [4] = not given; remark: listed apart in the source
# [5] = method code SF-AS, from DOI: 10.1016/0378-5173(85)90003-1
# [6] = method code SF-AS, from DOI: 10.1016/s0022-5347(24)07568-2, PMID: 4149453; details: pH 7.5
# [7] = not given; remark: listed apart in the source
# [8] = method code SF-AS, from DOI: 10.1002/qua.560100722
# [9] = not given; remark: listed apart in the source
# [10] = method code SF-RC, from DOI: 10.1016/j.bmc.2006.11.022, PMID: 17293116; details: pH 7.4
# [11] = not given; remark: listed apart in the source
# [12] = not given; remark: listed apart in the source
# [13] = pH 7.4
# [14] = method code SF-HPLC, from DOI: 10.1023/a:1016359301852, PMID: 24271710
# [15] = method code SF-AS, from DOI: 10.1016/0006-2952(90)90117-4, PMID: 2344368; details: pH 7.5
# [16] = not given; remark: listed apart in the source
# [17] = method code SF-AS, from DOI: 10.1016/j.arabjc.2011.11.013
# [18] = method code SF, from DOI: 10.1016/0378-5173(85)90077-8
# [19] = method code SF-HPLC, from DOI: 10.1023/a:1015956705293, PMID: 3244625
# [20] = method code SF, from DOI: 10.1002/ps.2780350215
structure (smiles),measurement,setting,value
Fc1ccc(C(c2ccc(F)cc2)N2CCN(C/C=C/c3ccccc3)CC2)cc1,logP,,4.83
CCCCOc1cc(C(=O)NCCN(CC)CC)c2ccccc2n1,logP,,4.19
Cc1ccc(N2C(=O)[C@H](CCCNS(=O)(=O)c3ccc(OC(F)(F)F)cc3)[C@H]2c2ccc(NS(=O)(=O)c3ccc(C)cc3)cc2)cc1,logP,[1],3.78
Cc1cccc2c1OP(=O)(OCC1OC(n3cc(C=CBr)c(=O)[nH]c3=O)CC1OC(=O)C(C)C)OC2 (configuration not stated),logP,[2],2.4
CC1CN(C2C=CC(COP(=O)(NC(C)C(=O)O)Oc3ccc(Br)cc3Cl)O2)C(=O)NC1=O (configuration not stated),logP,[3],1.81
C[C@@H]1CC2=CC(=O)CC[C@@H]2[C@H]2CC[C@@]3(C)[C@@H](CC[C@]3(C)O)[C@@H]21,logP,[4],3.19
Cn1nnnc1SCC1=C(C(=O)OCOC(=O)C(C)(C)C)N2C(=O)C(NC(=O)Cc3csc(N)n3)C2SC1 (configuration not stated),logD,[5]; pH 4.6,1.36
CCCCCOC(=O)CC[C@H](NC(=O)c1ccc(N(C)Cc2cnc3nc(N)nc(N)c3n2)cc1)C(=O)OCCCCC,logD,[6],1.33
CN1C=CCC(C(=O)O[C@H]2CC[C@H]3[C@@H]4CCc5cc(O)ccc5[C@H]4CC[C@]23C)=C1,logP,[7],4.52
COc1cccc2c1C(=O)c1c(O)c3c(c(O)c1C2=O)CC(O)(C(C)=O)CC3OC1CC(NC(=O)CN(C)C)C(O)C(C)O1 (configuration not stated),logD,[8]; pH 7.8,1.26
COC(=O)C(C)NP(=O)(OCC1C=CC(n2cc(C)c(=O)[nH]c2=O)O1)Oc1c(OC)cccc1OC (configuration not stated),logP,[3],0.4
CCc1ccc(S(=O)(=O)NCCC[C@H]2C(=O)N(c3ccc(C)cc3)[C@@H]2c2ccc(NS(=O)(=O)c3ccc(C)cc3)cc2)cc1,logP,[1],3.9
CC(CCN1CCC(O)(c2ccc(Cl)cc2)CC1)c1ccc(F)cc1 (configuration not stated),logP,[9],4.02
CNc1ccc(-c2nc3ccc(-c4nc5ccc(Cl)cc5s4)cc3s2)cc1,logD,[10],3.05
O=C(Nc1ccc2ncnc(Nc3ccc(F)c(Cl)c3)c2c1)c1ccc(F)cc1,logP,[11],4.55
C[C@@H]1C[C@@]2(C)[C@@H](CC[C@@H]3[C@@H]2CC[C@]2(C)[C@@H](O)CC[C@@H]32)CC1=O,logP,[4],3.99
Cc1ccc(C(=O)CCCN2CCC(O)(c3ccc(Cl)cc3)CC2)cc1,logP,[9],3.44
CC1N=C2C3=C(CCC(c4ccccc4)C3)C(C(N)=O)=CN2C1C (configuration not stated),logP,[12],3.21
CCCNC(=O)[C@H](O)[C@@]1(O)CC[C@H]2[C@@H]3CCC4=CC(=O)C=C[C@]4(C)[C@H]3[C@@H](O)C[C@@]21C,logD,[13],1.43
C#CC1(OC(=O)c2ccn(C)c2)CCC2C3CCC4=CC(=O)CCC4(C)C3CCC21C (configuration not stated),logP,[14],4.49
C=CCCN1C=CCC(C(=O)OC2CCC3C4CCc5cc(O)ccc5C4CC23C)=C1 (configuration not stated),logP,[7],3.96
COc1cccc2c1C(=O)c1c(O)c3c(c(O)c1C2=O)CC(O)(C(C)=O)CC3OC1CC(O)C(O)C(C)O1 (configuration not stated),logD,[15],1.34
O=C(Cn1ccc2cc(C(=O)O)ccc21)Oc1ccccc1-c1ccccc1,logP,[16],3.1
Cc1cccc2c1OP(=O)(OCC1OC(n3cc(/C=C/Br)c(=O)[nH]c3=O)CC1OC(=O)C1CCCN1)OC2 (configuration not stated),logP,[2],-0.4
O=C(CNc1ccccc1)Nc1ccc(Cl)cc1C(=O)c1ccccc1,logP,[17],4.24
CC(=O)OCC1=C(C(=O)OCOC(=O)C(C)(C)C)N2C(=O)C(NC(=O)Cc3cccs3)C2SC1 (configuration not stated),logD,[5]; pH 4.6,1.57
CN(C)c1ccc(-c2nc3ccc(-c4nc5ccc(F)cc5s4)cc3s2)cc1,logD,[10],2.99
O=C(Nc1ccc2ncnc(Nc3ccc(F)c(Cl)c3)c2c1)c1cccc(I)c1,logP,[11],5.58
CCCCCCCCOC(=O)CCC(NC(=O)c1ccc(N(C)Cc2cnc3nc(N)nc(N)c3n2)cc1)C(=O)OCCCCCCCC (configuration not stated),logD,[6],2.16
CCCCCCCC(=O)OCC(=O)[C@@]1(O)CC[C@H]2[C@@H]3CCC4=CC(=O)CC[C@]4(C)[C@H]3[C@@H](O)C[C@@]21C,logP,[18],4.37
COc1cccc2c1C(=O)c1c(O)c3c(c(O)c1C2=O)C[C@@](O)(C(C)=O)C[C@@H]3O[C@@H]1C[C@@H](N(C)C)[C@@H](O)[C@@H](C)O1,logD,[15],1.37
Cc1ccc(N2C(=O)C(CCCNS(=O)(=O)c3ccc(OC(F)(F)F)cc3)C2c2ccc(NS(C)(=O)=O)cc2)cc1 (configuration not stated),logP,[1],3.45
O=C(Nc1ccc2ncnc(Nc3ccc(F)c(Cl)c3)c2c1)c1ccc(I)cc1,logP,[11],4.83
CNc1ccc(-c2nc3ccc(-c4nc5ccccc5s4)cc3s2)cc1,logD,[10],2.34
C#C[C@]1(O)CC[C@H]2[C@@H]3CCC4=CC(=O)CC[C@@H]4[C@H]3CC[C@@]21C,logP,[14],2.97
CC1N=C2C3=C(CCC(c4ccccc4)C3)C(C(=O)NCCO)=CN2C1C (configuration not stated),logP,[12],2.81
CCCCCCCCc1ccc(OC(=O)Cn2ccc3cc(C(=O)O)ccc32)cc1,logP,[16],6.3
NC(=O)c1ccc2c(ccn2CC(=O)Oc2ccc(-c3ccccc3)cc2)c1,logP,[16],2.4
Nc1ccc(C(=O)OCC(=O)Nc2ccc(Cl)cc2C(=O)c2ccccc2)cc1,logP,[17],4.78
C[C@]12CCC(=O)C=C1CC[C@@H]1[C@@H]2[C@@H](O)C[C@@]2(C)[C@H]1CC[C@]2(O)C(=O)COC(=O)CCC(N)=O,logP,[19],1.43
CCCCCC(=O)OCC(=O)[C@@]1(O)CC[C@H]2[C@@H]3CCC4=CC(=O)CC[C@]4(C)[C@H]3C(=O)C[C@@]21C,logP,[18],3.3
Cn1nnnc1SCC1=C(C(=O)OCOC(=O)C(C)(C)C)N2C(=O)C(NC(=O)C(O)c3ccccc3)C2SC1 (configuration not stated),logD,[5]; pH 4.5,0.85
COC(=O)CCC(NC(=O)c1ccc(N(C)Cc2cnc3nc(N)nc(N)c3n2)cc1)C(=O)OC (configuration not stated),logD,[6],0.54
Cc1cc(=O)c(C(=O)Nc2ccccc2)c(C)n1CCc1ccccc1,logP,[20],2.04
C[C@]12C=CC(=O)C=C1CC[C@@H]1[C@@H]2[C@@H](O)C[C@@]2(C)[C@H]1CC[C@]2(O)[C@@H](O)C(=O)NCc1ccccc1,logD,[13],1.51
Cc1cccc2c1OP(=O)(OCC1OC(n3cc(/C=C/Br)c(=O)[nH]c3=O)CC1OC(=O)C(N)C(C)C)OC2 (configuration not stated),logP,[2],-0.1
C[C@]12CCC(=O)C=C1CC[C@@H]1[C@@H]2[C@@H](O)C[C@@]2(C)[C@H]1CC[C@]2(O)C(=O)COC(=O)CCCCCC(N)=O,logP,[19],2.3
CCCCCC(=O)OCC(=O)[C@@]1(O)CC[C@H]2[C@@H]3CCC4=CC(=O)CC[C@]4(C)[C@H]3[C@@H](O)C[C@@]21C,logP,[18],3.7
COC(=O)C(C)NP(=O)(OCC1C=CC(n2cc(C)c(=O)[nH]c2=O)O1)Oc1ccccc1Br (configuration not stated),logP,[3],0.95
COC(=O)CCCCCC(=O)OCC(=O)C1(O)CCC2C3CCC4=CC(=O)CCC4(C)C3C(O)CC21C (configuration not stated),logP,[19],3.7
CCc1cccc(CC)c1NC(=O)c1c(C)n(Cc2ccccc2)c(C)cc1=O,logP,[20],2.9
CNC(=O)C(O)C1(O)CCC2C3CCC4=CC(=O)C=CC4(C)C3C(O)CC21C (configuration not stated),logD,[13],1
COc1cccc2c1C(=O)c1c(O)c3c(c(O)c1C2=O)CC(O)(C(C)=O)CC3OC1CC(NC(C)=O)C(O)C(C)O1 (configuration not stated),logD,[15],1.85
CC(C)N1C=CCC(C(=O)OC2CCC3C4CCc5cc(O)ccc5C4CC23C)=C1 (configuration not stated),logP,[7],4.6
C#CC1(O)CC[C@H]2[C@@H]3CCC4=CC(=O)CC[C@]4(C)[C@H]3CC[C@@]21C (stereo in doubt),logP,[14],3.11
COc1cccc2c1C(=O)c1c(O)c3c(c(O)c1C2=O)C[C@@](O)(C(C)=NNC(=O)c1ccccc1)C[C@@H]3O[C@H]1C[C@H](N)[C@H](O)[C@H](C)O1,logD,[8]; pH 8.8,0.76
COc1ccc(C(=O)CCCN2CCC(O)(c3ccc(Cl)cc3)CC2)cc1,logP,[9],2.9
CO[C@H]1CC[C@H]2[C@@H]3CC[C@H]4CC(=O)[C@H](C)C[C@]4(C)[C@H]3CC[C@]12C,logP,[4],5.43
COc1ccc(CN2CCN(c3ccccc3)CC2)c(OC)c1OC,logP,,3
Cc1cc(=O)c(C(=O)Nc2ccccc2Cl)c(C)n1CCc1ccccc1,logP,[20],2.79
O=C(CNc1ccc(O)cc1)Nc1ccc(Cl)cc1C(=O)c1ccccc1,logP,[17],3.5
Cc1cn2c(n1)C1CC(c3ccccc3)CCC1C(C(=O)N(C)C)=C2 (configuration not stated),logP,[12],2.77
